We go through twelve compounds from US9339508B2, “Use of 3-methoxy-pregnenolone for the preparation of a drug for treating a traumatic brain injury” (MAPREG, priority 2003, dated 2016).

One data set concerns PC12 cells. Put plainly: Neuritic growth / sprouting of PC12 cells in the presence of NGF. As to conditions: 30 μM; for Neuritic sprouting: 3 days, NGF 10 ng/ml, relative to PREG. The data set is classed as cell-based, rat. The method, then: Each molecule was tested in three culture wells. Measurements were taken for 200 cells per well using Scion Image software.
Neurite (neurite) length was measured for 200 cells per well after 2, 5, and 8 days of culture.
To rest the effect of selected molecules on neuritic growth, we first used the PC12 line, which has long been employed in neurobiological research. In the presence of NOF (nerve growth factor), the cells of this line, which arise from a rat pheochromocytoma, form neuritic extensions containing MAP-associated microtubules.
Stimulation of neuritic sprouting is conducted on PC12 cells differentiated in the presence of NGF (10 ng/ml) and the steroid being tested (30 μM) for 3 days. For each condition, the average length of the longest 200 neurites in each cell is measured simultaneously for 3 cultures.

For data set [1], the target named is purified tubulin and MAP2 (Homo sapiens, UniProt P11137). Put plainly: MAP2-induced polymerization of microtubules in vitro (optical density at 345 nm). The data set is classed as biochemical. The procedure:
Purified MAP2 and tubulin are mixed in the presence of GTP at 4° C. in a spectrophotometer cuvette. Polymerization is induced by heating at 37° C. and is followed by the increase in optical density (OD) which indicates the quantity of polymers formed.
This in vitro test measures the effect of molecules on the MAP2-induced polymerization of microtubules. This polymerization occurs when MAP2 proteins and tubulin are mixed at adequate concentrations in the presence of GTP. It is accompanied by an increase in optical density measured at 345 nm for 15 to 30 minutes with a UNICON spectrophotometer thermostated at 37° C. (FIG. 1).
Activity is measured by the increase in optical density at 345 nm of a mixture of purified tubulin and MAP2, incubated at 37° C. in the presence of GTP.

In the next data set the test system is PC12 cell line. The data set is described as follows: Cellular toxicity on the PC12 cell line. The data set is classed as cell-based, rat. As to conditions: concentrations as high as solubility limits. The method, then:
Cellular toxicity tests are carried out routinely on the PC12 cell line.

The subject of data set [2] is transgenic mice expressing the longest isoform of human tau protein. The data set is described as follows: RotaRod motor incoordination in transgenic tau mice. The data set is classed as in vivo, mouse. As to conditions: subcutaneous implant releasing 0.38 mg per day for 90 days. An excerpt:
FIG. 8: Effect of molecule 43B on the motor incoordination of transgenic mice expressing the longest isoform of human tau protein in their neurons. […] The maximum speed of rotation of the RotaRod drum before the […] falls is a measurement of motor coordination (higher values correspond to a better treatment effect).
In order to evaluate the therapeutic potential of 433 to treat Alzheimer-type neurodegenerative diseases, a homozygous transgenic line of mice, such as described by Götz (EMBO J. 1995; 14(7):1304-13), can be used.
These mice express the longest human tau protein isoform. They present symptoms of neurological dysfunction expressed as muscular weakness and a reduction in motor coordination which correlate histologically with the appearance of abnormal neurites and hyperphosphorylated tau proteins as is seen in Alzheimer's disease. This pathological phosphorylation decreases the affinity of tau for microtubules and favors its aggregation.
A breeding program was undertaken at Bicêtre and genotyping made it possible to select mice homozygous for the transgene. […] The implants released 0.38 mg of steroid per day for 90 days. The progression of motor incoordination was followed by repeated RotaRod tests.
Background: Falling from the rotarod earlier than controls is read as motor impairment.

In data set [3] the test system is α-tubulin in rat hippocampus. The data set is described as follows: Microtubule dynamics in rat hippocampus (Tyr/Glu-Tub ratio, Acet-Tub). The data set is classed as in vivo. To be noted: 10 mg/kg subcutaneously, single administration. An excerpt: Mean±SEM, n=6 per group. **P<0.01, *P<0.5 vs sesame oil.
The effects produced by neurosteroids were compared with those produced by acute administration of the antidepressant drug fluoxetine (selective serotonin reuptake inhibitor SSRI).
Neurosteroids and 3-Methoxy-PREG (43B) Levels

The next data set concerns Sprague Dawley rats. The data set is described as follows: Forced swimming test (FST). The format is in vivo, rat. To be noted: 10 mg/kg subcutaneously, 24, 5, 1 h before testing. The procedure: Drugs were administered following the traditional dosing regimen used in the FST consisting of three injections: 24, 5, 1 h before testing.
The FET is currently the most widely used animal model for assessing depression related behavior and antidepressant drug activity in rodents (Cryan et al., Neubiorev. 2005). Rats are placed in an inescapable cylinder of water where they develop an immobile posture believed to reflect a “depressive”-like state. The Lime rats spend immobile is decreased by drugs exerting antidepressant activity.
Additional behaviors can be detected in the FST; namely, climbing and swimming. It has been shown that swimming behavior is sensitive to SSRIs such as fluoxetine whereas climbing is sensitive to norepinephrine re-uptake inhibitors (NRI) such as desipramine.

The target in data set [4] is T1, human progesterone receptor (PR) (Homo sapiens, UniProt P06401).
T1 construct: expressed in transfected cells; host or cells: HEK293T cells
T1 sequence (P06401 1-933): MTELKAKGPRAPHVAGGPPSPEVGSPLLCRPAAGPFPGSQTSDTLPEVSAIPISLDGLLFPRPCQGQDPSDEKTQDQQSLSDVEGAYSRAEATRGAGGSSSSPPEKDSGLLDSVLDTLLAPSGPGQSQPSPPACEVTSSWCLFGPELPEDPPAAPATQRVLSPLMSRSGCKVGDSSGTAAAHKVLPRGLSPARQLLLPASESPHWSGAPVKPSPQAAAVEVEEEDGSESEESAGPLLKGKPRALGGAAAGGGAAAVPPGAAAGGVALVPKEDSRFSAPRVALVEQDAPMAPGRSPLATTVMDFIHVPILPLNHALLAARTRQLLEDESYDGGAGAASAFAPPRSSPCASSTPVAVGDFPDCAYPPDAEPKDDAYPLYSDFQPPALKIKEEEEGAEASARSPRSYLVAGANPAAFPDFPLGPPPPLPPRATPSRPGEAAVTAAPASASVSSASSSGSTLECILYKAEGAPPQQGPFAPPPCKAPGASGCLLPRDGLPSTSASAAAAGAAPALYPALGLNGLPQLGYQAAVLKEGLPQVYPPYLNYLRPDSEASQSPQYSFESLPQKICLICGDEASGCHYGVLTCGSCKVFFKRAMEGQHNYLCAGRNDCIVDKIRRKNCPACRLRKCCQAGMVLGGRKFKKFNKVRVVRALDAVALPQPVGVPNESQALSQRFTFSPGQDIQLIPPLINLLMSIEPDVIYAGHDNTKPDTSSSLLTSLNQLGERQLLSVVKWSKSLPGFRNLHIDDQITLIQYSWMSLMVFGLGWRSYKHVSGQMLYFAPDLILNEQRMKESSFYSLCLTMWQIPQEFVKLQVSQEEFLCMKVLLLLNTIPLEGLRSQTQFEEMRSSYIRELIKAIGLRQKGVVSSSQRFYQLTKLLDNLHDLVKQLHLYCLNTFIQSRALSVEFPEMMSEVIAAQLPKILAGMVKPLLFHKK
Put plainly: Test of progesterone receptor antagonist activity (luciferase transactivation, HEK293T). To be noted: with progesterone 1 nM, increasing amounts. The format is cell-based. The method, then: (§1) The main experimental setting used is the following: HEK293T cells were transiently transfected, using calcium phosphate precipitation technology, with expression receptors pSG5hPR (which permits expression of human progesterone receptor (PR)), pFC31-luc (contains the luciferase gene under the control of the MTV promoter, which is in turn activated by binding of a progestin to progesterone receptor) and pcbetagal (which permits expression of betagalactosidase), and cultured during 24 hours with increasing amounts of various compositions: • 1. […] Test of progesterone receptor […] activity: transfected cells were cultured with progesterone (1 nM) and increasing amounts of RU486 (a well-known progesterone receptor antagonist) or 3-methoxy-pregnenolone. • With this setting, a compound with progesterone receptor antagonist activity competes with progesterone for the occupation of progesterone receptor and results in a progressive loss of transactivation activity when the amount of this compound is increased compared to progesterone. Results

For data set [5], the target named is T1, human progesterone receptor (PR). Put plainly: Test of progesterone receptor agonist activity (luciferase transactivation, HEK293T). The data set is classed as cell-based. To be noted: 24 hours, increasing amounts. The procedure: as §1
Where [6] appears, read: 40 μM, compared to solvent alone.

purified tubulin and MAP2, sequence (P11137 whole entry): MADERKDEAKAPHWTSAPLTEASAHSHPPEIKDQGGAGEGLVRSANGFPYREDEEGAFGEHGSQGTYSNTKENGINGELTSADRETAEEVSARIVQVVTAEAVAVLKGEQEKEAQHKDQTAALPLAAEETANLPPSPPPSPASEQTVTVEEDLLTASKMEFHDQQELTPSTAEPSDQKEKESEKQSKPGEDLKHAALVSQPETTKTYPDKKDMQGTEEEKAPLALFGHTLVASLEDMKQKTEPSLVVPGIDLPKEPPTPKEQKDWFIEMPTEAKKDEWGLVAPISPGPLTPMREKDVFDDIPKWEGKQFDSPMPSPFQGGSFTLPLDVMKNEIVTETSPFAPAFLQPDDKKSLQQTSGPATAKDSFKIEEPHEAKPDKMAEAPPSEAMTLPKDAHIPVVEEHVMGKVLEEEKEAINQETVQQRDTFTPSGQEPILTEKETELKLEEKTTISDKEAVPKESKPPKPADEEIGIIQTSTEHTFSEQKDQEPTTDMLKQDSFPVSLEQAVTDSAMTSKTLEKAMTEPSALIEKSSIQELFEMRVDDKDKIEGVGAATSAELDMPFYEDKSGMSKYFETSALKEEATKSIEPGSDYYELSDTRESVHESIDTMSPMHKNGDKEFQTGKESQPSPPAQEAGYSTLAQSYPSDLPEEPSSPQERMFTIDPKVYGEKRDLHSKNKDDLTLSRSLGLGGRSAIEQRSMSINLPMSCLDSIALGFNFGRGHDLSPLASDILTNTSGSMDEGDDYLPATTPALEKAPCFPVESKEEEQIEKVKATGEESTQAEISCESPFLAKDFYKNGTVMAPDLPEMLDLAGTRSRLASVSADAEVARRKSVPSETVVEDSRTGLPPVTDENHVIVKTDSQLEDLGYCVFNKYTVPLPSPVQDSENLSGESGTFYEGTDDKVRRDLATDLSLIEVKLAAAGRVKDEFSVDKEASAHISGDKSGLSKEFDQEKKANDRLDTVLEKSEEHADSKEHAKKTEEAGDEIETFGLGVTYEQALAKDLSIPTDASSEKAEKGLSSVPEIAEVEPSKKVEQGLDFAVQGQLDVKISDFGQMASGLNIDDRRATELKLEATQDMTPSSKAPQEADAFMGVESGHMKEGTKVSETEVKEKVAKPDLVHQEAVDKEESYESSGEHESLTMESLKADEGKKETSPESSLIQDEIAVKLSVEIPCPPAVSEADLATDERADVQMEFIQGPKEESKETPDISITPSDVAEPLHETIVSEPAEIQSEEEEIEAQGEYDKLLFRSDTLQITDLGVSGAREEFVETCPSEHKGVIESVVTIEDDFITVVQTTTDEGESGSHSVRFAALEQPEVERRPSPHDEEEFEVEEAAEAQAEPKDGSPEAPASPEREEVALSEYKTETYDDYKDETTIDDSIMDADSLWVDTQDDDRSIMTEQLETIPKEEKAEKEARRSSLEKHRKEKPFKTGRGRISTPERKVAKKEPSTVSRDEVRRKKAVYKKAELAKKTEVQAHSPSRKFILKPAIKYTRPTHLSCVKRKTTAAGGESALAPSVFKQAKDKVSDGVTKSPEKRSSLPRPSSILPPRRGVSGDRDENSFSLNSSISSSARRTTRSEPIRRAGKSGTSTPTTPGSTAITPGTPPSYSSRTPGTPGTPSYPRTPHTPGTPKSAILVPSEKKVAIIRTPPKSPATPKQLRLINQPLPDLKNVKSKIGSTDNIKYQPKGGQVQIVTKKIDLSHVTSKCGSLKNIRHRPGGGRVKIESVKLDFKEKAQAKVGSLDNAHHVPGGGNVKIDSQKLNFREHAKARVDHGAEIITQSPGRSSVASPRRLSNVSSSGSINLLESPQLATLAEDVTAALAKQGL

As for `CO[C@H]1CC[C@@]2(C)[C@@H](CC[C@@H]3[C@@H]2CC[C@]2(C)[C@@H](C(C)=O)CC[C@@H]32)C1` [3β-methoxy-5α-pregnane-20-one], the Neuritic sprouting entry with PC12 cells was “+++”. The same measure, in the same setting: the value for `CO[C@H]1CC[C@@]2(C)C(CCC3C2CC[C@@]2(C)C3CC[C@@H]2[C@@H](C)O)C1` (stereo partly drawn) [3β-methoxy-5α-pregnane-20β-ol] was “++ (equal to)”. Regarding `CO[C@H]1CC[C@@]2(C)C(=CC[C@@H]3[C@@H]2CC[C@@]2(C)[C@H]3CC[C@@]2(C(C)=O)C(Cl)Cl)C1` [3β-methoxy-pregna-5-ene-20-one-17α-dichloromethyl], the Neuritic sprouting result with PC12 cells is reported as “+++”. With `CC(=O)[C@H]1CC[C@H]2[C@@H]3CC=C4C[C@@H](O)CC[C@]4(C)[C@H]3CC[C@]12C` [PREG, pregnenolone], the microtubule polymerization entry in data set [1] is recorded as “activates microtubule polymerization”. Further, in data set [1] (setting [6]), the “Lag time of microtubule polymerization” value was “decreased”; the “polymerization rate and quantity of microtubules” value is “clearly increase”. The “increase in the average length of the neurites” value in the data set on PC12 cells (3 days of culture, NGF) is 60%. For the same compound, the Neuritic sprouting entry in the data set on PC12 cells is recorded as “++ (equal to)”. Also, in the data set on PC12 cell line, the cellular toxicity result was “do not demonstrate toxicity”. Moreover, in data set [2], the “motor dysfunction (RotaRod)” value is given as “Only the 3-methoxy-PREG had a beneficial effect”. Besides, in data set [3], the “Acet-Tub (stable acetylated α-tubulin)” value was “significantly decreased”. Also, in the data set with Sprague Dawley rats, the “rat climbing behavior in the FST” value was “not changed” and the “rat swimming in the FST” value is on record as “significantly increased”. `CC(=O)[C@@]12C[C@@H]1C[C@H]1[C@@H]3CC=C4C[C@@H](O)CC[C@]4(C)[C@H]3CC[C@@]12C` [PREG-16α,17α-methylene]: the Neuritic sprouting entry in the data set with PC12 cells is “+ (lower than)”. As to `CC(=O)[C@H]1[C@H](C)C[C@H]2[C@@H]3CC=C4C[C@@H](O)CC[C@]4(C)[C@H]3CC[C@@]21C` [PREG-16α-methyl], the Neuritic sprouting entry with PC12 cells is listed as “++ (equal to)”. As for `CC(=O)O[C@H](C)[C@H]1CC[C@H]2[C@@H]3CC=C4C[C@@H](O)CC[C@]4(C)[C@H]3CC[C@]12C` [Pregna-5-ene-3β,20β-diol-20-acetate], the Neuritic sprouting entry in the data set with PC12 cells is recorded as “++ (equal to)”.

Take `CC#C[C@]1(O)CC[C@H]2[C@@H]3CCC4=CC(=O)CCC4=C3[C@@H](c3ccc(N(C)C)cc3)C[C@@]21C` [RU486]: in data set [4], the “progesterone receptor antagonist activity” value is listed as “very high antagonist activity”. For the compound `CNCCC(Oc1ccc(C(F)(F)F)cc1)c1ccccc1` (centres unmarked) [fluoxetine], in data set [3], the “Acet-Tub (stable acetylated α-tubulin)” value is “tendency to increase”. Moreover, the Tyr/Glu-Tub ratio entry in data set [3] (3 h) is on record as “did not change”. On to `CC(=O)[C@H]1CC[C@H]2[C@@H]3CCC4=CC(=O)CC[C@]4(C)[C@H]3CC[C@]12C` [progesterone, reference compound], for which the microtubule polymerization entry in data set [1] is on record as “do not stimulate polymerization”. In addition, the “progesterone receptor agonist activity (transactivation)” value in data set [5] is reported as “permits a transactivation activity leading to the expression of luciferase”.

Turning to PREG-16α,17α-epoxy, the Neuritic sprouting result in the data set with PC12 cells was “+ (lower than)”. On to pregnenolone sulfate, for which the microtubule polymerization entry in data set [1] is listed as “do not stimulate polymerization”.
